Measured values taken from patent US10167262B2, “Herbicidal substituted 3-arylpyrazoles” (FMC CORPORATION, priority 2014, dated 2019).

What was measured:
Type in all cases: in vivo
[1] = test system: velvetleaf (Abutilon theophrasti); experiment: Test C pre-/postemergence greenhouse test, plant response rating 0-100; settings: Postemergence; for Plant response rating, Velvetleaf: scale 0 to 100
Outline: (§1)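 Pre-emergence soil and post-emergence foliar sprays were applied simultaneously to seeded loam–sand pots and to 1–4-leaf plants in peat medium; greenhouse holding lasted 13–15 days, then plants were scored visually from 0 (no effect) to 100 (complete control).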

soybean (Glycine max) = experiment: as above; settings: Postemergence; for Plant response rating, Soybean: scale 0 to 100
Outline: as §1

[2] = test system: large (Lg) crabgrass (Digitaria sanguinalis); experiment: as above; settings: Postemergence; for Plant response rating, Crabgrass, Large: scale 0 to 100
Outline: as §1

[3] = test system: lambsquarters (Chenopodium album); experiment: as above; settings: Postemergence; for Plant response rating, Lambsquarters: scale 0 to 100
Outline: as §1

[4] = test system: blackgrass (Alopecurus myosuroides); experiment: as above; settings: Postemergence; for Plant response rating, Blackgrass: scale 0 to 100
Outline: as §1

[5] = test system: galium (catchweed bedstraw, Galium aparine); experiment: as above; settings: Postemergence; for Plant response rating, Galium: scale 0 to 100
Outline: as §1

[6] = test system: yellow nutsedge (Cyperus esculentus); experiment: as above; settings: Postemergence; for Plant response rating, Nutsedge, Yellow: scale 0 to 100
Outline: as §1

corn (Zea mays) = experiment: as above; settings: Postemergence; for Plant response rating, Corn: scale 0 to 100
Outline: as §1

[7] = test system: pigweed (Amaranthus retroflexus); experiment: as above; settings: Postemergence; for Plant response rating, Pigweed: scale 0 to 100
Outline: as §1

[8] = test system: morningglory (Ipomoea coccinea); experiment: as above; settings: Postemergence; for Plant response rating, Morningglory: scale 0 to 100
Outline: as §1

[9] = test system: Italian ryegrass (Lolium multiflorum); experiment: as above; settings: Postemergence; for Plant response rating, Ryegrass, Italian: scale 0 to 100
Outline: as §1

[10] = test system: ragweed (common ragweed, Ambrosia elatior); experiment: as above; settings: Postemergence; for Plant response rating, Ragweed: scale 0 to 100
Outline: as §1

[11] = test system: bermudagrass (Cynodon dactylon); experiment: Test C postemergence greenhouse test, plant response rating 0-100; settings: for Plant response rating, Bermudagrass: scale 0 to 100
Outline: (§2)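 Formulated compounds applied postemergence; plants 1- to 4-leaf stage. Evaluated visually vs. untreated controls after roughly two weeks (13–15 d) under greenhouse conditions; 100 denotes complete control.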

[12] = test system: goosegrass (Eleusine indica); experiment: as above; settings: for Plant response rating, Goosegrass: scale 0 to 100
Outline: as §2

Fc1cccc(NN=C(c2ccccc2)c2c[nH]nc2-c2cc(Cl)cc(Cl)c2)c1 [Compound 58]
Plant response rating (0 to 100), Velvetleaf ([1]; 62 g ai/ha): 60 | Plant response rating (0 to 100), Velvetleaf ([1]; 125 g ai/ha): 65 | Plant response rating, Velvetleaf ([1]; 250 g ai/ha): 70 | Plant response rating, Velvetleaf ([1]; 500 g ai/ha): 75 | Plant response rating (0 to 100), Soybean (soybean (Glycine max); 62 g ai/ha): 0 | Plant response rating (0 to 100), Soybean (soybean (Glycine max); 125 g ai/ha): 5 | Plant response rating, Soybean (soybean (Glycine max); 250 g ai/ha): 10 | Plant response rating, Soybean (soybean (Glycine max); 500 g ai/ha): 10 | Plant response rating (0 to 100), Crabgrass, Large ([2]; 62 g ai/ha): 5 | Plant response rating (0 to 100), Crabgrass, Large ([2]; 125 g ai/ha): 5 | Plant response rating, Crabgrass, Large ([2]; 250 g ai/ha): 5 | Plant response rating, Crabgrass, Large ([2]; 500 g ai/ha): 5 | Plant response rating (0 to 100), Lambsquarters ([3]; 62 g ai/ha): 70 | Plant response rating (0 to 100), Lambsquarters ([3]; 125 g ai/ha): 100 | Plant response rating, Lambsquarters ([3]; 250 g ai/ha): 100 | Plant response rating, Lambsquarters ([3]; 500 g ai/ha): 100 | Plant response rating (0 to 100), Blackgrass ([4]; 62 g ai/ha): 0 | Plant response rating (0 to 100), Blackgrass ([4]; 125 g ai/ha): 0 | Plant response rating, Blackgrass ([4]; 250 g ai/ha): 0 | Plant response rating, Blackgrass ([4]; 500 g ai/ha): 0 | Plant response rating (0 to 100), Galium ([5]; 62 g ai/ha): 0 | Plant response rating (0 to 100), Galium ([5]; 125 g ai/ha): 0 | Plant response rating, Galium ([5]; 250 g ai/ha): 0 | Plant response rating, Galium ([5]; 500 g ai/ha): 5 | Plant response rating (0 to 100), Nutsedge, Yellow ([6]; 62 g ai/ha): 0 | Plant response rating (0 to 100), Nutsedge, Yellow ([6]; 125 g ai/ha): 0 | Plant response rating, Nutsedge, Yellow ([6]; 250 g ai/ha): 0 | Plant response rating, Nutsedge, Yellow ([6]; 500 g ai/ha): 0 | Plant response rating (0 to 100), Corn (corn (Zea mays); 62 g ai/ha): 0 | Plant response rating (0 to 100), Corn (corn (Zea mays); 125 g ai/ha): 5 | Plant response rating, Corn (corn (Zea mays); 250 g ai/ha): 5 | Plant response rating, Corn (corn (Zea mays); 500 g ai/ha): 5 | Plant response rating (0 to 100), Pigweed ([7]; 62 g ai/ha): 100 | Plant response rating (0 to 100), Pigweed ([7]; 125 g ai/ha): 100 | Plant response rating, Pigweed ([7]; 250 g ai/ha): 100 | Plant response rating, Pigweed ([7]; 500 g ai/ha): 100 | Plant response rating (0 to 100), Morningglory ([8]; 62 g ai/ha): 0 | Plant response rating (0 to 100), Morningglory ([8]; 125 g ai/ha): 0 | Plant response rating, Morningglory ([8]; 250 g ai/ha): 0 | Plant response rating, Morningglory ([8]; 500 g ai/ha): 0 | Plant response rating (0 to 100), Ryegrass, Italian ([9]; 62 g ai/ha): 0 | Plant response rating (0 to 100), Ryegrass, Italian ([9]; 125 g ai/ha): 0 | Plant response rating, Ryegrass, Italian ([9]; 250 g ai/ha): 0 | Plant response rating, Ryegrass, Italian ([9]; 500 g ai/ha): 0 | Plant response rating (0 to 100), Ragweed ([10]; 62 g ai/ha): 10 | Plant response rating (0 to 100), Ragweed ([10]; 125 g ai/ha): 40 | Plant response rating, Ragweed ([10]; 250 g ai/ha): 50 | Plant response rating, Ragweed ([10]; 500 g ai/ha): 65 | Plant response rating (0 to 100), Bermudagrass ([11]; 62 g ai/ha): 0 | Plant response rating (0 to 100), Bermudagrass ([11]; 125 g ai/ha): 0 | Plant response rating, Bermudagrass ([11]; 250 g ai/ha): 0 | Plant response rating, Bermudagrass ([11]; 500 g ai/ha): 10 | Plant response rating (0 to 100), Goosegrass ([12]; 62 g ai/ha): 0 | Plant response rating (0 to 100), Goosegrass ([12]; 125 g ai/ha): 0 | Plant response rating, Goosegrass ([12]; 250 g ai/ha): 0 | Plant response rating, Goosegrass ([12]; 500 g ai/ha): 5

C=CCn1cc(C(=O)c2ccccc2)c(-c2cc(Cl)cc(Cl)c2)n1 [Compound 60]
Plant response rating (0 to 100), Velvetleaf ([1]; 62 g ai/ha): 70 | Plant response rating (0 to 100), Velvetleaf ([1]; 125 g ai/ha): 70 | Plant response rating, Velvetleaf ([1]; 250 g ai/ha): 80 | Plant response rating (0 to 100), Soybean (soybean (Glycine max); 62 g ai/ha): 5 | Plant response rating (0 to 100), Soybean (soybean (Glycine max); 125 g ai/ha): 5 | Plant response rating, Soybean (soybean (Glycine max); 250 g ai/ha): 5 | Plant response rating (0 to 100), Crabgrass, Large ([2]; 31 g ai/ha): 0 | Plant response rating (0 to 100), Crabgrass, Large ([2]; 62 g ai/ha): 0 | Plant response rating (0 to 100), Crabgrass, Large ([2]; 125 g ai/ha): 5 | Plant response rating, Crabgrass, Large ([2]; 250 g ai/ha): 5 | Plant response rating (0 to 100), Lambsquarters ([3]; 62 g ai/ha): 5 | Plant response rating (0 to 100), Lambsquarters ([3]; 125 g ai/ha): 40 | Plant response rating, Lambsquarters ([3]; 250 g ai/ha): 60 | Plant response rating (0 to 100), Blackgrass ([4]; 31 g ai/ha): 0 | Plant response rating (0 to 100), Blackgrass ([4]; 62 g ai/ha): 0 | Plant response rating (0 to 100), Blackgrass ([4]; 125 g ai/ha): 0 | Plant response rating, Blackgrass ([4]; 250 g ai/ha): 0 | Plant response rating (0 to 100), Galium ([5]; 31 g ai/ha): 0 | Plant response rating (0 to 100), Galium ([5]; 62 g ai/ha): 0 | Plant response rating (0 to 100), Galium ([5]; 125 g ai/ha): 0 | Plant response rating, Galium ([5]; 250 g ai/ha): 0 | Plant response rating (0 to 100), Nutsedge, Yellow ([6]; 62 g ai/ha): 0 | Plant response rating (0 to 100), Nutsedge, Yellow ([6]; 125 g ai/ha): 0 | Plant response rating, Nutsedge, Yellow ([6]; 250 g ai/ha): 0 | Plant response rating (0 to 100), Corn (corn (Zea mays); 31 g ai/ha): 5 | Plant response rating (0 to 100), Corn (corn (Zea mays); 62 g ai/ha): 5 | Plant response rating (0 to 100), Corn (corn (Zea mays); 125 g ai/ha): 5 | Plant response rating, Corn (corn (Zea mays); 250 g ai/ha): 5 | Plant response rating (0 to 100), Pigweed ([7]; 62 g ai/ha): 60 | Plant response rating (0 to 100), Pigweed ([7]; 125 g ai/ha): 65 | Plant response rating, Pigweed ([7]; 250 g ai/ha): 100 | Plant response rating (0 to 100), Morningglory ([8]; 62 g ai/ha): 0 | Plant response rating (0 to 100), Morningglory ([8]; 125 g ai/ha): 0 | Plant response rating, Morningglory ([8]; 250 g ai/ha): 0 | Plant response rating (0 to 100), Ryegrass, Italian ([9]; 62 g ai/ha): 0 | Plant response rating (0 to 100), Ryegrass, Italian ([9]; 125 g ai/ha): 0 | Plant response rating, Ryegrass, Italian ([9]; 250 g ai/ha): 0 | Plant response rating (0 to 100), Ragweed ([10]; 62 g ai/ha): 30 | Plant response rating (0 to 100), Ragweed ([10]; 125 g ai/ha): 30 | Plant response rating, Ragweed ([10]; 250 g ai/ha): 35 | Plant response rating (0 to 100), Bermudagrass ([11]; 31 g ai/ha): 0 | Plant response rating (0 to 100), Bermudagrass ([11]; 62 g ai/ha): 5 | Plant response rating (0 to 100), Bermudagrass ([11]; 125 g ai/ha): 5 | Plant response rating, Bermudagrass ([11]; 250 g ai/ha): 5 | Plant response rating (0 to 100), Goosegrass ([12]; 31 g ai/ha): 0 | Plant response rating (0 to 100), Goosegrass ([12]; 62 g ai/ha): 0 | Plant response rating (0 to 100), Goosegrass ([12]; 125 g ai/ha): 0 | Plant response rating, Goosegrass ([12]; 250 g ai/ha): 0
